Our source for the RP-LC retention time values is the METLIN SMRT retention time set (Domingo-Almenara et al. 2019).

SMILES strings stand for the structures.

This series is described as follows: gradient 5% acetonitrile 3 min, to 50% in 2 min, to 85% in 15 min, held 3 min, 100 µL/min. The following applies: column: Zorbax Extend-C18 2.1 x 50 mm; eluents: water / acetonitrile, 0.1% formic acid. Summed up: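 Values are retention times taken from adduct peaks that software picked and an analyst inspected. The pure standards were run as mixtures of ~100 molecules on HPLC linked to a quadrupole time-of-flight mass spectrometer, in positive and negative ionization mode. A Zorbax Extend-C18 column (2.1 × 50 mm, 1.8 μm) was used at 100 μL/min with water and acetonitrile, each including 0.1% formic acid.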
In the case of `Cc1cc(C(=O)N2CCC3(CCC3O)CC2)no1` (stereo not given), the RP-LC retention time amounted to 636 s.
`O=C(Nc1ccc2c(c1)OCCO2)N1CC(c2nc(CCOCC3CC3)no2)C1` yielded an RP-LC retention time of 754 s.
`CSc1ccc(NC(=O)N2CCN(c3cnn4c(C)nnc4c3)CC2)cc1` showed an RP-LC retention time of 576 s.
With `CN(CC1COCCO1)c1ccc(C(=O)O)cc1NC(=O)c1ccccc1Cl` (stereo not given) the figure was 771 s; with `COCCCNC(=O)C1CCN(c2nc3cccnc3s2)CC1`, 623 s; with `Cc1noc(-c2cc(=O)n(CC(=O)Nc3ccc(C(C)C)cc3)c3ccccc23)n1`, 1020 s.
With `Clc1ccccc1-c1noc(Cc2nnc(-c3cccc(Br)c3)o2)n1` the figure was 1100 s.
As for `COc1ccc(-c2nnc(N3CCC(C(=O)NC4CCCCCC4)CC3)o2)cc1`, the figure is 881 s.
In the case of `O=S(=O)(c1ccc2c(c1)-c1oncc1CO2)N1CCN(C2CCCCC2)CC1`, the RP-LC retention time is 640 s.
The compound `COc1ccc(-c2noc(Cc3nnc(-c4cc(F)cc(F)c4)o3)n2)cc1` displayed an RP-LC retention time of 1040 s.
Regarding `Cc1nc(S(=O)(=O)N2CCC(C(=O)N3CCN(c4ccccc4F)CC3)CC2)cn1C`, the RP-LC retention time is 719 s.
With `CCC1CCCCN1C(=O)c1cnc2nc(C)ccc2c1Nc1cc(Cl)ccc1OC` (stereo not given) the figure was 731 s; with `COc1ccc(-c2cn3c(CC(=O)Nc4ccc(Cl)c(C(F)(F)F)c4)csc3n2)cc1OC`, 882 s; with `CCN(CC)S(=O)(=O)c1ccc(C)c(-c2nnc(-c3ccc(F)cc3)o2)c1`, 1100 s.
With `COC(=O)CNC(=O)N1CCCCCC1c1ccc(C)cc1` (stereo not given) the figure was 852 s; with `CCn1cc(CCN2CCC(C(=O)Nc3ccccc3C)CC2)c2cccnc21`, 621 s.
Turning to `CCOC(=O)N1CCN(C(=O)c2nn(-c3ccccc3C)c(=O)cc2OC)CC1`, the RP-LC retention time turned out to be 663 s.
As for `Cc1cccc(NC(=O)C2CC(=O)N(c3ccc4c(c3)CCN4C(=O)C3CC3)C2)c1C` (stereo not given), the figure is 763 s.
With `CC(C)n1c(SCC(=O)N2CCCCC2)nnc1-c1ccc2c(c1)OCCCO2` the figure was 761 s; with `CCC(=O)N1CCc2c([nH]c3ccccc23)C12C(=O)Nc1ccc(Br)cc12` (stereo not given), 882 s; with `CCn1nccc1C(=O)NC1CCN(C2=NS(=O)(=O)C(c3ccc(C)cc3)=C2C)CC1`, 817 s.
Compound `Cc1cccc2c(C(N)=O)cc(N3CCCC3)nc12` displayed an RP-LC retention time of 570 s.
Consider `COc1ccccc1OCC(=O)NCC1(c2cccs2)CCCC1`, for which the RP-LC retention time was 557 s.
As for `CCCNC(=O)Cn1cc(C(=O)Nc2cc(C)cc(C)c2)c(=O)c2ccc(C)nc21`, the figure is 982 s; as for `COc1ccc(CCC(=O)N2CCC3(C2)C(=O)Nc2ccccc23)cc1` (stereo not given), 729 s; as for `O=C(COc1cccc2c(=O)[nH]ccc12)c1ccccc1`, 806 s.
`CN(C)CCCNC(=O)C1CCN(c2nc3ccc(-c4cccs4)nc3s2)CC1` displayed an RP-LC retention time of 647 s.
As for `CCOc1ccccc1NC(=O)N1CCCC1c1nc(-c2ccc(OC)cc2)no1` (stereo not given), the figure is 1100 s; as for `Cn1c(=O)c2c(ncn2CC(=O)OCc2cc(-c3cccs3)on2)n(C)c1=O`, 697 s.
`CCOc1ccc(CCNC(=O)C2CCCN(c3nccc(C)n3)C2)cc1OCC` (stereo not given) had an RP-LC retention time of 767 s.
In turn, `O=C(NC1CCCCCC1)C1CCCN(c2nccnc2Oc2ccccc2)C1` (stereo not given) showed an RP-LC retention time of 1060 s.
As for `COc1ccc2c(c1)C1(CCN(C(=O)NCCC(C)C)C1)C(=O)N2C` (stereo not given), the figure is 770 s; as for `Cc1cc(C)cc(Nc2c(-c3cccc(O)c3)nc3cnccn23)c1`, 763 s.
For `CCn1cc(-c2nc(CC(=O)Nc3ccc(OC)c(Cl)c3)cs2)c2cccnc21`, the RP-LC retention time was determined as 918 s.
As for `Cc1cnc(C(=O)N2CCC(c3noc(-c4ccncc4)n3)C2)cn1` (stereo not given), the RP-LC retention time amounted to 645 s.
As to `Cc1ccc(N2CC(c3noc(-c4ccc(-c5ccccc5)cc4)n3)CC2=O)cc1` (stereo not given), the RP-LC retention time is 1180 s.
As for `O[C@@H]1CCCCC1N1CCC(c2ccccc2)CC1` (stereo not given in full), the figure is 702 s; as for `Cc1nc(-c2ccccc2Cl)sc1C(=O)N1CCN(c2ccccn2)CC1`, 661 s; as for `CCCc1nnc(NC(=O)CSc2ncc(-c3ccccc3)[nH]2)s1`, 632 s.
As for `Cn1c(N2CCN(C(=O)c3cc4ccccc4[nH]3)CC2)cc(=O)n(C)c1=O`, the figure is 691 s; as for `CC(=O)N1CCc2nn(CC(=O)N3CCc4ccccc43)c(=O)cc2C1`, 639 s; as for `COc1ccc(Cn2c(=O)n(C)c3ncncc32)cc1F`, 683 s.
`CSc1ccc(Nc2ncccc2S(=O)(=O)Nc2ccc(F)cc2)cc1` displayed an RP-LC retention time of 1100 s.
As for `O=C(Cc1ccccc1Cl)N1CCN(S(=O)(=O)C2CC2)CC1`, the figure is 733 s.
`Cc1cc([N+](=O)[O-])ccc1NS(=O)(=O)c1cc(Cl)ccc1Cl` showed an RP-LC retention time of 1020 s.
As for `CCc1noc(-c2cnc3nc(C)ccc3c2NCc2ccc(OC)cc2OC)n1`, the figure is 752 s; as for `Cc1cc(-c2ccccc2)nc(Nc2nc(-c3ccccc3)c(CC(=O)O)s2)n1`, 922 s; as for `COCCCN1C(=O)c2ccc(-c3ccco3)n2CC1(C)C(=O)NCc1ccccc1` (stereo not given), 817 s.
As for `Cc1noc([C@@H]2CN(C(=O)c3occc3C)C[C@H]2COCC2CC2)n1`, the figure is 794 s.
With `COc1ccc(-c2nc3ccccn3c2NCc2ccccc2)cc1` the figure was 724 s.
The compound `COc1ccc(OC)c(CNC(=O)C2CCN(c3ncnc4c3oc3ccccc34)CC2)c1` yielded an RP-LC retention time of 754 s.
`COc1cc(NC(=O)C2CCN(C(=O)C3Sc4ccccc4NC3=O)CC2)cc(OC)c1` (stereo not given) displayed an RP-LC retention time of 754 s.
With `CCOC(=O)c1c(S(=O)(=O)N2CCC(C(=O)NC(C)CC)CC2)c(C)n(C)c1C` (stereo not given) the figure was 747 s.
As for `CC(=O)Nc1ccc(NC(=O)c2ccc3nc(-c4ccc(Cl)cc4)cn3c2)cc1`, the figure is 677 s; as for `COc1cn2c(cc1=O)C(=O)N(CCNC(=O)c1c(F)cccc1Cl)CC2`, 660 s; as for `O=C(Cn1nc2c(SC3CCCCC3)nccn2c1=O)Nc1ccc(Br)cc1`, 1120 s.
With `COc1ccc(CCNC(=O)Nc2nnc(-c3ccc(F)cc3F)o2)cc1` the figure was 788 s.
The compound `CC(C)C(=O)Nc1cnc(-c2ccccc2)nc1` returned an RP-LC retention time of 814 s.
With `Cc1ccc2c(c1)N(Cc1nc(-c3ccc(C)c(C)c3)no1)C(=O)CO2` the figure was 1160 s.
With `COCc1cnc2c(c1SCc1ccc(C)cc1)c(=O)n(C)c(=O)n2C` the figure was 1060 s; with `O=C(NCC(c1cccnc1)c1c[nH]c2ccccc12)Nc1ccc(F)cc1F` (stereo not given), 674 s.
Take `O=S(=O)(c1ccccc1)N1[C@H]2CC[C@@H]1c1cncnc1C2`: the RP-LC retention time was determined as 678 s.
For `CCOC(=O)c1ccc2ncc(C(=O)OCC)c(NCCN(C)C)c2c1`, the RP-LC retention time was determined as 569 s.
As for `CCc1nc2ccc(-c3noc(-c4cccs4)n3)cc2n1CC`, the figure is 702 s; as for `Cc1ccccc1N1CCN(c2ncnc3scc(-c4cccs4)c23)CC1`, 992 s; as for `O=C(CN1C(=O)c2ccccc2C1=O)NCc1nnnn1-c1ccc(Cl)cc1`, 722 s.
With `CCCNC(=O)CC1CCN(C(=O)c2[nH]c(C)c(C(=O)OCC)c2C)CC1` the figure was 683 s.
`COc1cc(NC(=O)c2cc(C(C)C)n3nccc3n2)cc(OC)c1OC`: the RP-LC retention time came out at 915 s.
`Oc1ccc(-c2nc3ccccn3c2Nc2ccc3c(c2)OCCO3)cc1` registered an RP-LC retention time of 596 s.
With `CCc1ccc(NS(=O)(=O)c2cc3[nH]c(=O)[nH]c3cc2C)cc1` the figure was 719 s; with `Clc1ccc(-c2nc(N3CCC4(CC3)OCCO4)c3ccccc3n2)cc1`, 822 s; with `Cc1ccc(NS(=O)(=O)c2cn(CC(C)C)c3ncccc23)cc1C`, 1040 s.
With `CN(C)CCNC(=O)C1CCN(c2ccc(-c3cccs3)nn2)CC1` the figure was 571 s.
On to `O=C(CSc1ccc(N2CCCC(C(=O)NC3CC3)C2)nn1)Nc1c(F)cccc1F` (stereo not given), for which the RP-LC retention time was found to be 617 s.
On to `Cc1cccc(NC(=O)N2CCCC2c2nc(-c3cccc(F)c3)no2)c1` (stereo not given), for which the RP-LC retention time amounted to 1020 s.
With `CN1C(=O)C(C)(C(=O)N2CCC(Cc3ccccc3)CC2)Oc2cccnc21` (stereo not given) the figure was 1020 s; with `COc1ccc(CNC(=O)N2CCN(Cc3nc4cc(-c5ccccc5)ccc4o3)CC2)cc1`, 812 s; with `CCC(=O)N(CC(=O)N1CCc2sccc2C1COc1cccc(OC)c1)CC1CCCO1` (stereo not given), 858 s.
As for `CN1C(=O)c2cc(C(=O)NCc3ccc(Cl)cc3)nn2CC1(C)C(=O)NC1CCCCC1` (stereo not given), the figure is 850 s; as for `CCOC(=O)c1[nH]c(C)c(C(=O)N2CCC(CC(=O)N3CCN(C4CCCCC4)CC3)CC2)c1C`, 598 s.
